# Results published in patent publication US20250154611A1, “SYSTEMS AND METHODS TO DETECT STEM CELL STRESS AND USES THEREOF” (Wayne State University, priority 2014, published 2025).
# Assays:
# mESCs = assay: RT-qPCR of lineage markers Dab2, Lrp2, Fgf5 in mESC monolayer; assay type: cell-based, mouse; conditions: 24 hr
# Description: FIGS. 16A-16E. Hyperosmotic stress in mESCs impacts transcription factor expression at protein and mRNA levels. (FIG. 16A) The inner cell mass (ICM) of the blastocyst coexpresses Oct4/Rex1/Nanog in pluripotent cells at E3.5. After E3.5 a Rex1 subpopulation delaminates from the ICM and expresses primitive endoderm (PrEndo) marker, Lrp2, at E3.5 and extraembryonic endoderm (ExEndo) marker, Dab2, at E4.5. At E4.75, Rex1 decreases in the remaining cells of the ICM and, by E5.5, fibroblast growth factor (FGF)5 is expressed in embryonic ectoderm (EmEcto). […] (FIG. 16C) Total RNA was isolated and subjected to reverse transcription to form complementary DNA (cDNA). Real-time quantitative PCR (RTqPCR) was performed with Oct4, Nanog, and Rex1 primers. Histograms represent relative fold change in mRNA expression using the ddCt method. (FIG. 16D) mESCs in monolayer were incubated±sorbitol and ±LIF for 24 hr. Dab2, Lrp2, and Fgf5 mRNA transcript levels were examined by RT-qPCR. […] Error flags are the standard error of the mean (n=3). “a” indicates significant difference for sorbitol +LIF compared with LIF− at 24 hr. […]
# RT-qPCR analysis. mESCs were trypsinized and harvested for RT-Qpcr analysis using a 7500 Fast Real Time PCR System (Applied Biosystems). […] RNA content was measured using ND-1000 Spectrophotometer (NanoDrop and ThermoScientific, Wilmington, DE). Complementary DNA (cDNA) was synthesized from 50 to 100 ng of total RNA using QuantiTect Reverse Transcription Kit (Qiagen) according to the manufacturer's instructions, and diluted 1:5. […]
# Primer pairs were checked for specificity using BLAST analysis and were checked by both agarose gel electrophoresis and thermal dissociation curves to ensure amplification of a single product, and to rule out formation of primer dimers during the RT-qPCR. […] The expression of the target genes was quantified against that of two internal reference genes, glyceraldehyde-3-phosphate dehydrogenase (GAPDH) and 18s ribosomal RNA subunit (18s rRNA). […] Fold change was determined using the ddCt method. […]
# Rex1-RFP mESCs = assay: Flow cytometry of Rex1-RFP reporter mESCs (bright, intermediate, dim subpopulations); assay type: cell-based, mouse; conditions: 3 days; for Bright subpopulation / Dim subpopulation / Intermediate + Dim / Intermediate subpopulation: LIF+
# Experimental: . Rex1-RFP mESCs expressing Rex1 promoter reporter were cultured in 12-well plates until 30% confluent, treated with 0 mM, 200 mM, and 300 mM sorbitol for 3 days, trypsinized, and cell suspensions were assayed by flow cytometry. Arbitrary thresholds (vertical red lines) were drawn at 5×10^3 on the X-axis between the middle of the two peaks and at 2 standard deviations above the mean of the parental (before infection) dim population shown in the bottom panel. Areas in parental dim, intermediate dim, and bright were defined by the 2 vertical red lines and were quantified as pixels using Image J from data in (FIG. 25A) to give histograms in (FIG. 25B).
# FIGS. 26A and 26B. Viable Rex1 promoter reporter responds with stress treatment in a dose-dependent manner in flow cytometry assay. mESCs expressing Rex1 promoter reporter were cultured in 12-well plates till 30% confluence. Cells were then treated with 200-300 mM of sorbitol in 25 mM increments for 3 days. After trypsinization, the cell suspensions were subjected for flow cytometry assay. An arbitrary threshold was drawn at 5×10^3 on the x-axis and another near the low point between the bright peak and the dimmer peak to its left (FIG. 26A). […] Intermediate and bright groups were also defined by the two vertical red lines. Area sizes of the two peaks were quantified using Image J. The histogram bars (FIG. 26B) are derived by three independent experiments, one of which is shown in (FIG. 26A), errors bars showing s.e.m., One-way ANOVA was performed followed by Dunnett's post hoc test using 0 mM as reference for parental dim, intermediate dim, and bright separately.
# Flow cytometric analysis of mESCs expressing pluripotency reporters. Fluorescence determination by the plate reader reported an averaged biochemical result from a population of cells inside the tissue culture vessel. […] This time point was designated as time zero. The cells were then treated with different sorbitol concentrations for 1-3 days. At each time point, cells were trypsinized and re-suspended in ice-cold D-PBS for flow cytometry assay using an LSR Fortessa flow cytometer (BD biosciences) and the FACS Diva Software version 7.0 (BD biosciences). Non-stressed mESCs that express Oct4-copGFP and/or Rex1-mApple and the non-modified, parental mESCs were used to set up the parameters that define the fluorescent cells and non-fluorescent cells.
# From the histogram of FACS, two peaks are seen. The right peak represents the bright fluorescent potent ESCs. The left peak represents the dim fluorescent non-potent ESCs. An arbitrary vertical line is drawn here at the 5×10^3 position on the PE-A axis to separate the low potency ESCs. The peak areas were calculated using Image J by counting the area pixels.
# [1] = 200 mM +LIF, vs time-matched +LIF and -LIF controls
structure (smiles),measurement,setting,value
OC[C@@H](O)[C@@H](O)[C@H](O)[C@@H](O)CO [sorbitol],Dab2 mRNA expression,mESCs; [1],significantly higher
same,Lrp2 mRNA expression,mESCs; [1],significantly higher
same,upregulation of EmEcto marker Fgf5 mRNA,mESCs; 200 mM,suppressed
same,decrease in high activity Rex1 subpopulation,Rex1-RFP mESCs; 0 to 300 mM,20%
same,decrease in the bright group,Rex1-RFP mESCs; 0 to 300 mM,21.5%
same,increase in parental dim ESCs,Rex1-RFP mESCs; 0 to 300 mM,15.8%
same,increase in the low Rex1 activity subpopulation,Rex1-RFP mESCs; 0 to 300 mM,2.8 fold
same,total change toward intensity decrease,Rex1-RFP mESCs; 0 to 300 mM,40.4 % of cells
same,Bright subpopulation,Rex1-RFP mESCs; 200 mM,77.1%
same,Dim subpopulation,Rex1-RFP mESCs; 200 mM,12.2%
same,Intermediate + Dim,Rex1-RFP mESCs; 200 mM,22.9%
same,Intermediate subpopulation,Rex1-RFP mESCs; 200 mM,10.7%
same,Bright subpopulation,Rex1-RFP mESCs; 225 mM,75.6%
same,Dim subpopulation,Rex1-RFP mESCs; 225 mM,13.7%
same,Intermediate + Dim,Rex1-RFP mESCs; 225 mM,24.4%
same,Intermediate subpopulation,Rex1-RFP mESCs; 225 mM,10.7%
same,Bright subpopulation,Rex1-RFP mESCs; 250 mM,72%
same,Dim subpopulation,Rex1-RFP mESCs; 250 mM,16.6%
same,Intermediate + Dim,Rex1-RFP mESCs; 250 mM,28%
same,Intermediate subpopulation,Rex1-RFP mESCs; 250 mM,11.4%
same,Bright subpopulation,Rex1-RFP mESCs; 275 mM,71.9%
same,Dim subpopulation,Rex1-RFP mESCs; 275 mM,17.1%
same,Intermediate + Dim,Rex1-RFP mESCs; 275 mM,28.1%
same,Intermediate subpopulation,Rex1-RFP mESCs; 275 mM,11%
same,Bright subpopulation,Rex1-RFP mESCs; 300 mM,61.8+/−3.7%
same,Dim subpopulation,Rex1-RFP mESCs; 300 mM,24.4+/−2.9%
same,Intermediate + Dim,Rex1-RFP mESCs; 300 mM,28.1%
same,Intermediate subpopulation,Rex1-RFP mESCs; 300 mM,13.8+/−2.1%
same,Bright subpopulation,"Rex1-RFP mESCs; 300 mM, listed as Sorbitol",61.8%
same,Dim subpopulation,"Rex1-RFP mESCs; 300 mM, listed as Sorbitol",24.4%
same,Intermediate subpopulation,"Rex1-RFP mESCs; 300 mM, listed as Sorbitol",13.8%
same,increase in intermediate dim ESCs,Rex1-RFP mESCs; to 300 mM,3.1%
